We go through two molecules from patent publication US6342485B1, “Synergistic compositions useful as anti-tumor agents” (priority 1999, dated 2002).

Data set [1] relates to H630 human colorectal tumor cells.
Protocol: (§2) The antiproliferative activities of FdUMP[10] and 5-FU for the human colorectal tumor cell lines H630 and H630-10 were compared using an assay for 3-(4,5-dimethylthiazol-2-yl)-2,5-diphenyltetrazolium bromide (MTT). H630 and H630-10 cells were cultured using RPMI 1640 containing L-glutamine and supplemented with 10% Nu-serum IV. All culture media were supplemented with penicillin/streptomycin. 25,000 cells were plated (96 well flute-bottom plate) in 200 μL of medium at 37° C. overnight in an air atmosphere containing 5% CO2. The medium was replaced the next day, and cells were exposed to the drugs for 24 h. The medium was then removed from the plates and replaced with 100 μL of fresh medium and 25 μL of MTT solution (5 μg/μL in PBS) per well. Following 2 h incubation, 100)L of MTT solvent (20% w/v SDS dissolved in DMF:H2O [1:1], pH 4.7) was added to each well and the plates were incubated overnight (Senderoff et al., 1990). The plates were analyzed the following morning on a Titerek Multiscan Plus 96-well plate analyzer (v.1.4). The number of viable cells in each well containing cells treated with drug was calculated from the absorbance at 570 nm compared to untreated controls. The means and standard deviation at each concentration for each drug were calculated using standard statistical methods. MTT assays were run in duplicate or triplicate to assure the statistical significance of the results.
A further data set deals with H630 cells. Briefly: TUNEL assay for induction of apoptosis. It counts as cell-based, human. Conditions: TUNEL staining, H630 cells exposed for 72 h, data not shown. The protocol: About one million H630 cells were seeded into each of the T-75 cell culture flasks. Two days later, after two doubling times, the cells were exposed to FdUMP[10]. The cells were exposed to FdUMP[10] for 72 h, and then fixed with 1% methanol-free formaldehyde for 20 min at 0° C. The fixed-cells were then placed in a 70% ethanol solution at −20° C. for two weeks. The ethanol was then removed, and the cells were washed with PBS and incubated with TdT buffer (Promega), containing equilibration buffer, nucleotide mixture and TdT enzyme, at 37° C. for 1 hour. The reaction was terminated by addition of EDTA solution and the incubation buffer was then removed. The cells were then treated with 0.1% Triton, followed by propidium iodide containing DNase-free RNAse. The cells were kept at room temperature for 30 min, and then analyzed by flow cytometry.

Data set [2] deals with H630-10 human colorectal tumor cells. The data set can be described thus: MTT assay. The note with it: H630-10 cells, 24 h drug exposure. It counts as cell-based. The source says:
All culture media were supplemented with penicillin/streptomycin.

The subject of another data set is cells. Briefly: Preliminary rescue experiments on the mechanism of cytotoxicity. It counts as cell-based.
Data set [3] concerns H630-10 human colorectal tumor cells. Briefly: Clonogenic assay. It counts as cell-based. The note with it: H630-10 cells, 72 h drug exposure. The procedure: (§1) About one thousand viable H630 or H630-10 cells suspended in 10 mL of RPMI 1640 medium with 9% NU serum IV were grown at 37° C. in a humidified 5% CO2-air atmosphere in 100×20 mm plastic petri dishes. After 48 h, the medium was removed, and replaced with 10 mL of fresh medium containing either 5-FU, FdUMP[10], or both 5-FU and FdUMP[10]. After 72 h, the medium containing drugs was removed and replaced by fresh medium. Plates were incubated for 2 to 3 weeks with fresh medium added, if necessary, after which the medium was removed, and the clones were identified by staining with 0.1% methylene blue in 70% ethanol aqueous solution. The number of surviving colonies was counted, and calculated as a percent of controls. Each study was repeated twice.

The test system of data set [4] is H630 human colorectal tumor cells. The data set can be described thus: Clonogenic assay. It counts as cell-based. The note with it: for IC50: Clonogenic assay, H630 cells, 72 h drug exposure. The procedure: as §1
The conditions of data set [5]: cited from earlier work.
The test system of data set [6] is H630 human colorectal tumor cells. The data set can be described thus: cells. The note with it: NCI-H630, 24 h.
Protocol: as §2

Where two headings read alike, the source gives them in different places.

The IC50 is the midpoint of a concentration-inhibition curve. FdUMP[10]: the “efficiency of FdUMP[10] relative to 5-FU” value in data set [1] was “about 400 times”. For the same molecule, the IC50 in data set [1] (MTT assay, H630 cells, 24 h drug exposure) stood at 16.9 nM; in data set [2], 99.5 nM; in data set [3], 71 nM; in data set [4], 250 nM. The cells undergoing apoptosis in the data set on H630 cells is around 100%. Also, the “rescue of cells from FdUMP[10] by deoxythymidine” value in the data set on cells was “does not rescue”. The “reversal of the effects of FdUMP[10] by uridine” value in the data set on cells is given as “partially reverse”. Further, the “effect on the growth of H630 cells as single agent” value in data set [4] (FdUMP[10] alone at 4.0×10^−8 and 6.0×10^−8 M) is reported as “no significant effect”.
For the molecule `O=c1[nH]cc(F)c(=O)[nH]1` [5-FU, 5-fluorouracil, reference compound], the half-life in-vivo result in data set [5] is reported as “about 18 minutes”. Further, the IC50 in data set [2] (Homo sapiens) is 27100 nM; in data set [6] it was 4870 nM; in data set [3] (Homo sapiens) it was 75000 nM; in data set [4] (Homo sapiens, NCI-H630) it was 3900 nM.
